Source: ChEMBL document CHEMBL5154935, “Design, Synthesis, and Biological Evaluation of Novel Evodiamine Derivatives as Potential Antihepatocellular Carcinoma Agents” (J Med Chem, 2022)
The source made the active and inactive calls. The calls are words filed in the database; no cut-off is given here.

Assays:
HepG2 = test: Antiproliferative activity against human HepG2 cells treated for 72 hrs by MTT assay; type: functional, cell-based; settings: HepG2, 72 h
Huh-7 [1] = test: Antiproliferative activity against human Huh-7 cells treated for 72 hrs by MTT assay; type: functional, cell-based; settings: Huh-7, 72 h
SK-HEP1 [2] = test: Antiproliferative activity against human SK-HEP1 cells treated for 72 hrs by MTT assay; type: functional, cell-based; settings: SK-HEP1, 72 h
HCCLM9 = test: Antiproliferative activity against human HCCLM9 cells treated for 72 hrs by MTT assay; type: functional, cell-based; settings: HCCLM9, 72 h
[3] = Antiproliferative activity against human L02 cells treated for 72 hrs by MTT assay; type: toxicity, cell-based
[4] = target: T1, DNA topoisomerase 1 (Homo sapiens) (UniProt P11387); test: Inhibition of Top1 (unknown origin) assessed as inhibition of relaxation of supercoiled pBR322 plasmid DNA at 50 uM incubated for 25 mins by ethidium bromide staining based agarose gel electrophoresis analysis relative to control
T1 sequence (whole entry): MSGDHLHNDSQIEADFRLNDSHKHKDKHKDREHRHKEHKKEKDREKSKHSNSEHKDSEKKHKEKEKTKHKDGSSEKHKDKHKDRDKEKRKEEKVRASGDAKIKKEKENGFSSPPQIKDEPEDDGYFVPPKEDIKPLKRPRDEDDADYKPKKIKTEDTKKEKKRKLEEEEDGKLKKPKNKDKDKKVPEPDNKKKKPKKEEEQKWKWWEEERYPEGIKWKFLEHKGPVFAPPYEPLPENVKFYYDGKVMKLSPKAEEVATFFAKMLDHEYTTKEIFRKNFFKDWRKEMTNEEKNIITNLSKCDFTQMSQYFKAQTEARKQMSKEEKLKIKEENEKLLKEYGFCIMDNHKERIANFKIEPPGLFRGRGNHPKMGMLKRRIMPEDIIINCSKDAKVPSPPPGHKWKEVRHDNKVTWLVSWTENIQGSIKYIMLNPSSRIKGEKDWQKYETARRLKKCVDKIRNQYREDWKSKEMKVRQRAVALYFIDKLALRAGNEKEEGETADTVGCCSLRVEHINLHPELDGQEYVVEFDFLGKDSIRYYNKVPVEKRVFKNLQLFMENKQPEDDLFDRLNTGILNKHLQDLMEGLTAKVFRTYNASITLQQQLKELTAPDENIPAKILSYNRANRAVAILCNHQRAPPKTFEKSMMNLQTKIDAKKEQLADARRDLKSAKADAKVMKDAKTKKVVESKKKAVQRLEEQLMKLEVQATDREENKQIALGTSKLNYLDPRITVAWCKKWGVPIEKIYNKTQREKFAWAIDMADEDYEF

[5] = target: T1, DNA topoisomerase 1 (Homo sapiens); test: Inhibition of Top1 (unknown origin) assessed as inhibition of relaxation of supercoiled pBR322 plasmid DNA at 12.5 uM incubated for 25 mins by ethidium bromide staining based agarose gel electrophoresis analysis relative to control
[6] = target: DNA topoisomerase 2-alpha (Homo sapiens) (UniProt P11388); test: Inhibition of human Top2-alpha expressed in baculovirus assessed as inhibition of relaxation of supercoiled pBR322 plasmid DNA at 100 uM incubated for 30 mins in presence of ATP by ethidium bromide staining based agarose gel electrophoresis analysis relative to control
SK-HEP1 [7] = test: Induction of cell cycle arrest in human SK-Hep1 cells assessed as accumulation at S phase at 80 nM treated for 24 hrs by PI staining based flow cytometry (reference value: 24.98 %); type: functional
Huh-7 [8] = test: Induction of cell cycle arrest in human Huh-7 cells assessed as accumulation at G1 phase at 80 nM treated for 24 hrs by PI staining based flow cytometry (reference value: 60.77 %); type: functional
Huh-7 [9] = test: Induction of cell cycle arrest in human Huh-7 cells assessed as accumulation at G2 phase at 80 nM treated for 24 hrs by PI staining based flow cytometry (reference value: 15.90 %); type: functional
Huh-7 [10] = test: Induction of cell cycle arrest in human Huh-7 cells assessed as accumulation at S phase at 80 nM treated for 24 hrs by PI staining based flow cytometry (reference value: 23.33 %); type: functional
SK-HEP1 [11] = test: Induction of cell cycle arrest in human SK-Hep1 cells assessed as accumulation at G1 phase at 80 nM treated for 24 hrs by PI staining based flow cytometry (reference value: 58.47 %); type: functional
SK-HEP1 [12] = test: Induction of cell cycle arrest in human SK-Hep1 cells assessed as accumulation at G2 phase at 80 nM treated for 24 hrs by PI staining based flow cytometry (reference value: 16.55 %); type: functional
Huh-7 [13] = test: Induction of apoptosis in human Huh-7 cells assessed as viable cells at 80 nM incubated for 24 hrs by annexin V-FITC/PI staining flow cytometry (reference value: 97.3 %); type: functional; settings: read-out: Activity
Huh-7 [14] = test: Induction of apoptosis in human Huh-7 cells assessed as early apoptotic cells at 80 nM incubated for 24 hrs by annexin V-FITC/PI staining flow cytometry (reference value: 0.33 %); type: functional
Huh-7 [15] = test: Induction of apoptosis in human Huh-7 cells assessed as late apoptotic cells at 80 nM incubated for 24 hrs by annexin V-FITC/PI staining flow cytometry (reference value: 1.33 %); type: functional
Huh-7 [16] = test: Induction of apoptosis in human Huh-7 cells assessed as necrotic cells at 80 nM incubated for 24 hrs by annexin V-FITC/PI staining flow cytometry (reference value: 1.08 %); type: functional
SK-HEP1 [17] = test: Induction of apoptosis in human SK-Hep1 cells assessed as viable cells at 80 nM incubated for 24 hrs by annexin V-FITC/PI staining flow cytometry (reference value: 97.8 %); type: functional; settings: read-out: Activity
SK-HEP1 [18] = test: Induction of apoptosis in human SK-Hep1 cells assessed as early apoptotic cells at 80 nM incubated for 24 hrs by annexin V-FITC/PI staining flow cytometry (reference value: 0.30 %); type: functional
SK-HEP1 [19] = test: Induction of apoptosis in human SK-Hep1 cells assessed as late apoptotic cells at 80 nM incubated for 24 hrs by annexin V-FITC/PI staining flow cytometry (reference value: 1.13 %); type: functional
SK-HEP1 [20] = test: Induction of apoptosis in human SK-Hep1 cells assessed as necrotic cells at 80 nM incubated for 24 hrs by annexin V-FITC/PI staining flow cytometry (reference value: 0.73 %); type: functional
[21] = Induction of apoptosis in rat HSC-T6 cells assessed as viable cells at 80 nM pretreated with TGFbeta-1 for 1 day followed by compound addition and measured after 24 hrs by flow cytometry (reference value: 97.5 %); type: functional; settings: read-out: Activity
[22] = Induction of apoptosis in rat HSC-T6 cells assessed as early apoptotic cells at 80 nM pretreated with TGFbeta-1 for 1 day followed by compound addition and measured after 24 hrs by flow cytometry (reference value: 0.17 %); type: functional
[23] = Induction of apoptosis in rat HSC-T6 cells assessed as late apoptotic cells at 80 nM pretreated with TGFbeta-1 for 1 day followed by compound addition and measured after 24 hrs by flow cytometry (reference value: 1.76 %); type: functional
[24] = Induction of apoptosis in rat HSC-T6 cells assessed as necrotic cells at 80 nM pretreated with TGFbeta-1 for 1 day followed by compound addition and measured after 24 hrs by flow cytometry (reference value: 0.56 %); type: functional
[25] = Toxicity in BALB/c mouse xenografted with human Huh-7 cells assessed as reduction in WBC levels at 10 mg/kg, ip qd for 11 days and measured on day 11; type: organism-based; settings: in vivo, 264 h, time 11 day
SMMC-7721 = test: Antiproliferative activity against human SMMC-7721 cells treated for 72 hrs by MTT assay; type: functional, cell-based; settings: SMMC-7721, 72 h
HSC-T6 = test: Antiproliferative activity against TGF-beta-1-stimulated rat HSC-T6 cells assessed as suppression of cell proliferation at 6.67 to 60 uM preincubated with TGFbeta-1 for 1 day followed by compound addition and measured after 48 hrs; type: functional, cell-based; settings: dose 6.67-60 µM
Huh-7 [26] = test: Antitumor activity against human Huh-7 cells xenografted in BALB/c mouse assessed as tumor growth inhibition at 10 mg/kg, ip qd for 11 days and measured every 2 days relative to control; type: functional; settings: Huh-7, 264 h, time 11 day, read-out: TGI
Huh-7 [27] = test: Antitumor activity against human Huh-7 cells xenografted in BALB/c mouse assessed as reduction in neo-vascularisation at 10 mg/kg, ip qd for 11 days and measured after 12 days by hematoxylin and eosin staining based assay; type: functional, organism-based; settings: time 12.0 day
[28] = Toxicity in BALB/c mouse xenografted with human Huh-7 cells assessed as histopathological change in liver at 10 mg/kg, ip qd for 11 days and measured after 12 days by hematoxylin and eosin staining based assay; type: organism-based; settings: in vivo, 288 h, time 12 day
[29] = Toxicity in BALB/c mouse xenografted with human Huh-7 cells assessed as histopathological change in kidney at 10 mg/kg, ip qd for 11 days and measured after 12 days by hematoxylin and eosin staining based assay; type: organism-based; settings: in vivo, 288 h, time 12 day
[30] = Toxicity in BALB/c mouse xenografted with human Huh-7 cells assessed as histopathological change in heart at 10 mg/kg, ip qd for 11 days and measured after 12 days by hematoxylin and eosin staining based assay; type: organism-based; settings: in vivo, 288 h, time 12 day
[31] = Toxicity in BALB/c mouse xenografted with human Huh-7 cells assessed as histopathological change in lung at 10 mg/kg, ip qd for 11 days and measured after 12 days by hematoxylin and eosin staining based assay; type: organism-based; settings: in vivo, 288 h, time 12 day
[32] = Toxicity in BALB/c mouse xenografted with human Huh-7 cells assessed as histopathological change in spleen at 10 mg/kg, ip qd for 11 days and measured after 12 days by hematoxylin and eosin staining based assay; type: organism-based; settings: in vivo, 288 h, time 12 day

DNA topoisomerase 2-alpha (Homo sapiens), sequence (P11388 whole entry): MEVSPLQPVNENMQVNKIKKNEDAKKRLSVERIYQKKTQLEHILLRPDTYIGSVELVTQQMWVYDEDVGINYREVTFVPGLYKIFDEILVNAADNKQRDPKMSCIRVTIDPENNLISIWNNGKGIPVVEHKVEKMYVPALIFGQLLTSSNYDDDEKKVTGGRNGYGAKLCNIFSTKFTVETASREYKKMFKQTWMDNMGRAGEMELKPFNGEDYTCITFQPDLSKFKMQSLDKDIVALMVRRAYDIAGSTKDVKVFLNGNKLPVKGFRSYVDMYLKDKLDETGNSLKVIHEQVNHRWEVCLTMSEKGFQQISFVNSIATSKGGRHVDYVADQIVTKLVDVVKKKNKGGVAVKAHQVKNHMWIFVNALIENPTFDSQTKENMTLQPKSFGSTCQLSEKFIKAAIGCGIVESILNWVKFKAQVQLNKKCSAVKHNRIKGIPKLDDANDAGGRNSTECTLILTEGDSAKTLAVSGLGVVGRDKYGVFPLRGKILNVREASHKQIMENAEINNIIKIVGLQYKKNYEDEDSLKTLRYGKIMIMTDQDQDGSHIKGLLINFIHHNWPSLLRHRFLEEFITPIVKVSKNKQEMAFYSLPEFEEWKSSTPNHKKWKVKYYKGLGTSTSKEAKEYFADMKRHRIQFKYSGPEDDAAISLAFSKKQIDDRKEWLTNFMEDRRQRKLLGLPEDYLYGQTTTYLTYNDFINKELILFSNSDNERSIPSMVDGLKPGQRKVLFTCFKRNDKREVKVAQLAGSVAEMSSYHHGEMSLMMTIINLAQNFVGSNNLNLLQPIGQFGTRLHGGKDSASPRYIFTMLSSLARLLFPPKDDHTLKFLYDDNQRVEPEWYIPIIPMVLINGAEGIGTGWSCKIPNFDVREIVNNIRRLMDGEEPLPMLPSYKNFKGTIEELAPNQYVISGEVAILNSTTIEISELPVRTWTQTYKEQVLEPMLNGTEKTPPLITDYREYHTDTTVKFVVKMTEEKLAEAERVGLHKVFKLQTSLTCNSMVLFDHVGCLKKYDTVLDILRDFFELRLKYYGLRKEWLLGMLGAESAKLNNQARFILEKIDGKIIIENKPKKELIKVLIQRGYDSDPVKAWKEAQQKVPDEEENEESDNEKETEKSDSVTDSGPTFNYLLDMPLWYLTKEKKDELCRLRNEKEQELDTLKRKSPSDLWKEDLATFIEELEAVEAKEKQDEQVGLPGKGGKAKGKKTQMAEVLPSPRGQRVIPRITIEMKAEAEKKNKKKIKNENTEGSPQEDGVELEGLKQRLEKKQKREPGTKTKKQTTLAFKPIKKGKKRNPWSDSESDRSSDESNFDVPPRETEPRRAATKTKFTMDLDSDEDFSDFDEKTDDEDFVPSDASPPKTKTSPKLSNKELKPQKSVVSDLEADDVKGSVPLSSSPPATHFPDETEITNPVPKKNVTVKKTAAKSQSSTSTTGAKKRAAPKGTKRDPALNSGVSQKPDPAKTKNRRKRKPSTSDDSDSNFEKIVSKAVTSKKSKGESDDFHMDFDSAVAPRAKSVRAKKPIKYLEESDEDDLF

IC50 (HepG2) [nM]	IC50 (Huh-7 [1]) [nM]	IC50 (SK-HEP1 [2]) [nM]	IC50 (HCCLM9) [nM]	Compound	IC50 at 72 h [3] [nM]	Activity (SK-HEP1 [7]) [%]	Activity (Huh-7 [8]) [%]	Activity (Huh-7 [9]) [%]	Activity (Huh-7 [10]) [%]	Activity (SK-HEP1 [11]) [%]	Activity (SK-HEP1 [12]) [%]	viability at 0.08 µM (Huh-7 [13]) [%]	Activity (Huh-7 [14]) [%]	Activity (Huh-7 [15]) [%]	Activity (Huh-7 [16]) [%]	viability at 0.08 µM (SK-HEP1 [17]) [%]	Activity (SK-HEP1 [18]) [%]	Activity (SK-HEP1 [19]) [%]	Activity (SK-HEP1 [20]) [%]	viability at 0.08 µM [21] [%]	also measured
2670	2180	2920	9270	CN1c2ccccc2C(=O)N2CCc3c([nH]c4ccccc34)C21 (stereo not given)	3950	36	60.65	15.93	23.42	60.43	3.57	92	0.57	5.83	1.64	85	0.27	2.79	1.01	94.4	inhibition [4]: 63.4%; inhibition [5]: 3.67%; inhibition [6]: 48%; Activity [22]: 0.27%; Activity [23]: 4.44%; Activity [24]: 0.9%; Activity [25]: Toxic; IC50 (SMMC-7721): 3040 nM
2100	2600	1980	3150	CNC(=O)c1cc(Oc2ccc(NC(=O)Nc3ccc(Cl)c(C(F)(F)F)c3)cc2)ccn1 [SORAFENIB]	5980	34.1	53	9.16	37.84	60.47	5.43	94.6	0.23	3.94	1.18	94.1	1.01	3.5	1.32	91.5	Activity (HSC-T6): Active; Activity [22]: 0.16%; Activity [23]: 7.47%; Activity [24]: 0.85%; inhibition in vivo at 10 mg/kg (Huh-7 [26]): 46.3%; Activity (Huh-7 [27]): Active; Activity [28]: Non-Toxic; Activity [29]: Non-Toxic; Activity [30]: Non-Toxic; Activity [31]: Non-Toxic; Activity [32]: Non-Toxic; IC50 (SMMC-7721): 2370 nM
